In publication PMC6154393 (Bioorganic & medicinal chemistry, 2018):
In brackets after ≈: the same amount, converted by molar mass.

Assays:
in vitro [1] = settings: monkey
Mtb Erdman strain = test: BALB/c acute infection model, oral administration; format: in vivo, Mycobacterium tuberculosis
in vitro [2] = settings: human, Caco-2
[3] = test system: non-replicating Mtb (H37Rv); test: microbe, parasite or virus in culture; format: cell-based; settings: Mycobacterium tuberculosis, 240 h, read-out: MIC (LORA)
[4] = test system: intracellular Mtb CDC1551-tdTomato in macrophages (J774A.1 cells); test: Killing effect against intracellular Mtb in J774A.1 macrophages; format: cell-based, Mycobacterium tuberculosis; settings: at 2xMIC; for Killing of intracellular Mtb (in words): J774A.1 macrophages
[5] = mouse, in vivo, iv, 10 mg/kg
in vivo = settings: BALB/c, mouse, po, 30 mg/kg
Mycobacterium smegmatis = settings: cited from earlier work

**Q.** For `CC[C@@H](CO)NCCN[C@@H](CC)CO` [Ethambutol (EMB), Ethambutol], which IC50 at 72 h (in vitro [1]) is on record?
**A.** > 200 µg/mL

**Q.** With `NNC(=O)c1ccncc1` [Isoniazid (INH), Isoniazid, reference compound] as the compound, how does the Log reduction (Mtb Erdman strain; 2.5 mg/kg, 3 weeks, lung burden relative to untreated control) read?
**A.** about 4 Log10

**Q.** And the IC50 at 72 h (in vitro [1])?
**A.** > 200 µg/mL

**Q.** Which IC50 at 72 h (in vitro [1]) does the source give for `CC(=O)NC[C@H]1CN(c2ccc(N3CCOCC3)c(F)c2)C(=O)O1` [Linezolid] here?
**A.** > 200 µg/mL

**Q.** What does the source list for `CNC(=C[N+](=O)[O-])NCCSCc1ccc(CN(C)C)o1` [Ranitidine]?
**A.** Papp A→B at 2 h, 10 µM (in vitro [2]): 0.237 ×10⁻⁶ cm/s; efflux ratio at 2 h, 10 µM (in vitro [2]): 5

**Q.** For `CO[C@H]1/C=C/O[C@@]2(C)Oc3c(C)c(O)c4c(O)c(c(/C=N/N5CCN(C)CC5)c(O)c4c3C2=O)NC(=O)/C(C)=C\C=C\[C@H](C)[C@H](O)[C@@H](C)[C@@H](O)[C@@H](C)[C@H](OC(C)=O)[C@@H]1C` [Rifampicin (RIF), Rifampicin], which IC50 at 72 h (in vitro [1]) is on record?
**A.** > 200 µg/mL

**Q.** Which results are given for `CC[C@]1(C)C[C@@H](OC(=O)CSC(C)(C)CNC(=O)[C@H](N)CC(C)C)[C@]2(C)[C@H](C)CC[C@]3(CC[C@@H](O)[C@H]32)[C@@H](C)[C@@H]1O` [UT-800 (1)]?
**A.** MIC [3]: 1.04 to 3.46 µg/mL (≈ 1.78 to 5.94 µM); Time to kill Mtb in infected macrophages ([4]; J774A.1 cells, Mtb CDC1551-tdTomato): ≤ 72 h; Killing of intracellular Mtb (in words) [4]: kills intracellular Mtb faster than rifampicin; Killing of intracellular Mtb (in words) ([4]; listed as 1): killed intracellular Mtb more effectively than INH and RIF; Log10 cfu/mouse (Mtb Erdman strain; 100 mg/kg, oral, 3 weeks, lungs, BALB/c mice, mean of 5): 8.1E+05; Viable organisms persisted (Mtb Erdman strain; 200 mg/kg, 3 weeks): 5.6-5.7 log10 cfu/mouse; Log10 cfu/mouse (Mtb Erdman strain; 200 mg/kg, oral, 3 weeks, lungs, BALB/c mice, mean of 5): 4.4E+05; Log10 cfu/mouse (Mtb Erdman strain; in vivo): 1.2E+06; AUC0-24h [5]: 66,281 ng•h/g; Tmax (in vivo): ≤ 1 h

**Q.** For `C=C[C@]1(C)C[C@@H](OC(=O)CSC(C)(C)CNC(=O)[C@H](N)CC(C)C)[C@]2(C)[C@H](C)CC[C@]3(CCC(=O)[C@H]32)[C@@H](C)[C@@H]1O` [UT-810 (2)], which MIC [3] is on record?
**A.** 1.04 to 3.46 µg/mL (≈ 1.8 to 5.98 µM)

**Q.** Which MIC [3] does the source give for `CC[C@]1(C)C[C@@H](OC(=O)CSC(C)(C)CNC(=O)[C@H](N)CC(C)C)[C@]2(C)[C@H](C)CC[C@]3(CCC(=O)[C@H]32)[C@@H](C)[C@@H]1O` [UT-815 (3)] here?
**A.** 1.04 to 3.46 µg/mL (≈ 1.79 to 5.96 µM)

**Q.** Which MIC [3] does the source give for `C=C[C@]1(C)C[C@@H](OC(=O)CSC(C)(C)CNC(=O)[C@H](N)CC(C)C)[C@]2(C)[C@H](C)CC[C@]3(CC[C@@H](O)[C@H]32)[C@@H](C)[C@@H]1O` [UT-820 (4)] here?
**A.** 1.04 to 3.46 µg/mL (≈ 1.79 to 5.96 µM)

**Q.** What does the source list for `C=C[C@]1(C)C[C@@H](OC(=O)CSC(C)(C)CNC(=O)[C@H](N)C(C)C)[C@]2(C)[C@H](C)CC[C@]3(CCC(=O)[C@H]32)[C@@H](C)[C@@H]1O` [Valnemulin]?
**A.** MIC (Mycobacterium smegmatis): 8 to 16 µg/mL; IC50 at 72 h (in vitro [1]): 15 µg/mL (≈ 26.6 µM)
